Data as given in the NIST ThermoML archive (doi:10.1021/je700033y).
± gives the expanded uncertainty stated by the source.

Settings: Liquid, High pressure cell

With CO [methanol] the “vapor or sublimation pressure” value (353.1 K) was 181 ± 3 kPa and the “vapor or sublimation pressure” value (393.1 K) was 635 ± 3 kPa.
